Consider 7 molecules from patent publication US11958865B1, “Leucine-rich repeat kinase 2 (LRRK2) inhibitors” (H. Lundbeck A/S, priority 2022, dated 2024).

A short description of series [1]: Hepatocyte intrinsic clearance assay. The series is classed as in vitro ADME, Human. The conditions noted are these: pooled donor, cryopreserved hepatocytes, pH 7.4; human hepatocytes 1×10^6/mL; 0.05 μM; 2 h at 37° C. How it is done: Test compounds (final concentration 0.05 μM, 0.05% organic) were incubated for 2 h at 37° C., with shaking, in supplemented Leibovitz L-15 media (pH 7.4) containing commercially sourced, pooled donor, cryopreserved hepatocytes (final concentration 1×10^6 hepatocytes/mL). The CLint reactions (350 μL) were initiated by addition of test compound. Aliquots (25 μL) were taken at 1, 5, 10, 15, 30, 60, 90 and 120 minutes and then protein crashed with ice-cold acetonitrile containing internal standard (150 μL) then centrifuged (1960 g for 20 minutes at 4° C.). Supernatant was diluted (1:4) with deionized water then analyzed by liquid chromatography (LC)-tandem mass spectrometry (MS/MS).

Series [2] addresses T1, LRRK2 WT (Homo sapiens (Human), UniProt Q5S007). As to the kind of experiment: LRRK2 wild-type ADP-Glo kinase assay. The conditions noted are these: read-out: LRRK2 WT ADPGlo IC50. The class given is biochemical. In general terms: ADP-Glo first removes unused ATP, then detects ADP through luciferase.
Series [3] in a line: Hepatic microsomal intrinsic clearance assay. The series is classed as in vitro ADME. The conditions noted are these: for CLint scaled at 1 μM: pooled liver microsomes, pH 7.4, liver microsomes 0.5 mg/mL, NADPH, 1 hour at 37° C., LLOQ 0.36 L/h/kg. The method, boiled down: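 Compounds at 1 μM final were incubated with pooled liver microsomes (0.5 mg/mL) in phosphate buffer pH 7.4 at 37 °C for up to 60 min. Samples taken at 0, 5, 10, 20, 30 and 60 min were quenched with acetonitrile and analysed by LC-MS/MS.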

In series [4] the target is T1, LRRK2 WT. As to the kind of experiment: LRRK2 wild-type LanthaScreen TR-FRET kinase activity assay. To be noted: 1 nM kinase, 1.3 mM ATP, n≥2 tests. The class given is biochemical. Background: Time-resolved FRET reads energy transfer from a long-lived donor to a nearby acceptor.
The target of series [5] is LRRK2 G2019S (Homo sapiens (Human), UniProt Q5S007, G2019S). As to the kind of experiment: LRRK2 G2019S LanthaScreen TR-FRET kinase activity assay. The conditions noted are these: 250 pM kinase, 1.3 mM ATP, n≥2 tests. The class given is biochemical.
Sequence of LRRK2 G2019S (Q5S007 970-2527 G2019S): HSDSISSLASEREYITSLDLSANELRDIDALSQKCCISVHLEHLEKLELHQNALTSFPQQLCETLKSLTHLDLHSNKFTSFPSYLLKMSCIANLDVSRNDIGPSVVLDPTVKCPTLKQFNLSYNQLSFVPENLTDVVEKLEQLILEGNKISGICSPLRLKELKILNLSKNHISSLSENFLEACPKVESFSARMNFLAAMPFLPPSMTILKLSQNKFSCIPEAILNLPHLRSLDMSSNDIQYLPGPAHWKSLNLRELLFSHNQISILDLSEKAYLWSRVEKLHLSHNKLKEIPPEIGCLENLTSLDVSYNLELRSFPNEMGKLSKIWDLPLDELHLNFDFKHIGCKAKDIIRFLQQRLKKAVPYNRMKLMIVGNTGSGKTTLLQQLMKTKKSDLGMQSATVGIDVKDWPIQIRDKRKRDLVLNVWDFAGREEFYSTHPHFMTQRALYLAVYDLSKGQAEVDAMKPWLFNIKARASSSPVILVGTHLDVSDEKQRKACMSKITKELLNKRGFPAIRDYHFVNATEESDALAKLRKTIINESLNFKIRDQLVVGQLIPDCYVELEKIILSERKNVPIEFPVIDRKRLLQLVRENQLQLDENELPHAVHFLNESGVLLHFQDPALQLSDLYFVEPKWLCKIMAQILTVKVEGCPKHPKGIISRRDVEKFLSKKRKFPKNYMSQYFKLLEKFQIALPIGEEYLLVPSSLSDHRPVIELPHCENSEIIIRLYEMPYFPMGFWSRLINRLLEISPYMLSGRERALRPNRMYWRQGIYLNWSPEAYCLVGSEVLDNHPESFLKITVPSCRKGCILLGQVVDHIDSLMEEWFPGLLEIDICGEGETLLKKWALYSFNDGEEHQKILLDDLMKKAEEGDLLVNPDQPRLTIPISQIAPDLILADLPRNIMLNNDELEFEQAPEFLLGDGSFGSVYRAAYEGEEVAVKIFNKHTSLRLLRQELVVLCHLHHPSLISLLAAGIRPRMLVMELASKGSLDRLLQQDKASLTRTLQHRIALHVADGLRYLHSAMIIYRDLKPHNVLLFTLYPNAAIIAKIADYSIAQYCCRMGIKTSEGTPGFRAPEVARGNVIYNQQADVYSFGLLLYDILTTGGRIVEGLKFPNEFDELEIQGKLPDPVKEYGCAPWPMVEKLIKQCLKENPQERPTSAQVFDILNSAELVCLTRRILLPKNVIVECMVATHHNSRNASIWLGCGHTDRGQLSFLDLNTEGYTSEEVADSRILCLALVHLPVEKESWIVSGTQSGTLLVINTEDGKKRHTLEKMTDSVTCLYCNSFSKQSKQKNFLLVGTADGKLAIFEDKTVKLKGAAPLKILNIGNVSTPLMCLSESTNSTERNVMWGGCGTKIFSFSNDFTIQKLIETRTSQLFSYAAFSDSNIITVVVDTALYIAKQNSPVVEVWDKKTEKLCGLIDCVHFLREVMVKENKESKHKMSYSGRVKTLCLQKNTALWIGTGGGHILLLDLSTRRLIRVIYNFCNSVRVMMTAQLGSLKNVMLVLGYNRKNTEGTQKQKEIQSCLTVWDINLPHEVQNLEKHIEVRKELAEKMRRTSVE
Setting [6] is: 0.5 nM kinase, 1.0 mM ATP, IC50=Ki,app+[E]/2, n≥2 tests.

T1 sequence (Q5S007 970-2527): as the sequence (Q5S007 970-2527 G2019S) above, with S1050G counted along it

For the molecule `COc1nc(C)ccc1-n1nc2c(c1C)Nc1ncc3c(Cl)nn(c3n1)CCCO2` [Example 13, 8-Chloro-2-(2-methoxy-6-methylpyridin-3-yl)-3-methyl-2,4,12,13-tetrahydro-11H-5,7-(azenometheno)dipyrazolo[3,4-b:5′,1′-g][1]oxa[4,6,8]triazacycloundecine], the CLint scaled at 0.05 μM in series [1] was 31.3 mL/min/kg. Besides, the values for the IC50 in series [2] (setting [6]), in series [4] and in series [5] were 0.33 nM, 0.57 nM and 0.22 nM, respectively. In series [3] (based on liver microsomal CLint values of Table 6), the “Rate of metabolism classification (liver microsomal CLint)” value is given as “moderate to high rate of metabolism”. This molecule had a CLint scaled at 1 μM in series [3] of 30.3 mL/min/kg.

As for `Cc1c2c(nn1-c1cccnc1C(C)(F)F)OCCCn1nc(Cl)c3cnc(nc31)N2` [Example 14, 8-Chloro-2-(2-(1,1-difluoroethyl)pyridin-3-yl)-3-methyl-2,4,12,13-tetrahydro-11H-5,7-(azenometheno)dipyrazolo[3,4-b:5′,1′-g][1]oxa[4,6,8]triazacycloundecine], the CLint scaled at 0.05 μM in series [1] was 7.83 mL/min/kg. In addition, the 50% inhibitory concentration (IC50) in series [2] (setting [6]) stood at 1.5 nM; in series [4] it was 14 nM; in series [5], 4.2 nM. Further, in series [3], the CLint scaled at 1 μM was 17.2 mL/min/kg.

The molecule `COc1nccc(C)c1-n1nc2c(c1C)Nc1ncc3c(Cl)nn(c3n1)CCCO2` [Example 7, 8-Chloro-2-(2-methoxy-4-methylpyridin-3-yl)-3-methyl-2,4,12,13-tetrahydro-11H-5,7-(azenometheno)dipyrazolo[3,4-b:5′,1′-g][1]oxa[4,6,8]triazacycloundecine] gave a CLint scaled at 0.05 μM in series [1] of 7.83 mL/min/kg. Also, the concentration for half-maximal inhibition (IC50) in series [2] (setting [6]) came to 0.78 nM; in series [4] it was 6.9 nM; in series [5], 2.3 nM. In addition, the CLint scaled at 1 μM in series [3] was 16.2 mL/min/kg.

`Cc1nc(C)c(-n2nc3c(c2C)Nc2ncc4c(Cl)nn(c4n2)CCCO3)cc1F` [Example 15, 8-Chloro-2-(5-fluoro-2,6-dimethylpyridin-3-yl)-3-methyl-2,4,12,13-tetrahydro-11H-5,7-(azenometheno)dipyrazolo[3,4-b:5′,1′-g][1]oxa[4,6,8]triazacycloundecine] had a CLint scaled at 0.05 μM in series [1] of 12 mL/min/kg. Also, the results for the IC50 in series [2] (setting [6]), in series [4] and in series [5] were 0.66 nM, 4 nM and 1.4 nM, respectively. For the same molecule, in series [3], the intrinsic clearance (CLint scaled) at 1 μM is 12 mL/min/kg.

In series [1], `COc1ncccc1-n1nc2c(c1C)Nc1ncc3c(Cl)nn(c3n1)CCCO2` [Example 1, 8-Chloro-2-(2-methoxypyridin-3-yl)-3-methyl-2,4,12,13-tetrahydro-11H-5,7-(azenometheno)dipyrazolo[3,4-b:5′,1′-g][1]oxa[4,6,8]triazacycloundecine] gave a CLint scaled at 0.05 μM of 10.7 mL/min/kg. The IC50 in series [2] (setting [6]) was 0.46 nM; in series [4], 1.1 nM; in series [5], 0.45 nM. In series [3], this molecule showed a CLint scaled at 1 μM of 9.67 mL/min/kg.

As for `COc1nc(C)ncc1-n1nc2c(c1C)Nc1ncc3c(Cl)nn(c3n1)CCCO2` [Example 22, 8-Chloro-2-(4-methoxy-2-methylpyrimidin-5-yl)-3-methyl-2,4,12,13-tetrahydro-11H-5,7-(azenometheno)dipyrazolo[3,4-b:5′,1′-g][1]oxa[4,6,8]triazacycloundecine], the CLint scaled at 0.05 μM in series [1] was under 4 mL/min/kg. Further, the figures for the IC50 in series [2], in series [4] and in series [5] were 0.6 nM, 2.1 nM and 0.59 nM, respectively. This molecule also came in with a CLint scaled at 1 μM in series [3] of under 6 mL/min/kg.

With `COc1ncc(C)cc1-n1nc2c(c1C)Nc1ncc3c(Cl)nn(c3n1)CCCO2` [Example 12, 8-Chloro-2-(2-methoxy-5-methylpyridin-3-yl)-3-methyl-2,4,12,13-tetrahydro-11H-5,7-(azenometheno)dipyrazolo[3,4-b:5′,1′-g][1]oxa[4,6,8]triazacycloundecine], in series [1], the CLint scaled at 0.05 μM is 8 mL/min/kg. Also, the values for the IC50 in series [2] (setting [6]), in series [4] and in series [5] were 0.63 nM, 0.4 nM and 0.13 nM, respectively. Also, the CLint scaled at 1 μM in series [3] is 16.8 mL/min/kg.

The CLint scaled is the rate of metabolic loss divided by the concentration. The low end stands for slow turnover, the high end for rapid turnover. As usually defined, the IC50 is the concentration that inhibits the measured activity by half.
